The text below walks through data of patent US20230234943A1, “TREX1 INHIBITORS AND USES THEREOF” (Tempest Therapeutics, Inc., priority 2020, published 2023).

This assay has as its target T1, Human TREX1 enzyme (amino acids 1-242) (Homo sapiens, UniProt Q9NSU2).
T1 construct: Human TREX1 enzyme (amino acids 1-242)
T1 sequence (Q9NSU2 1-242): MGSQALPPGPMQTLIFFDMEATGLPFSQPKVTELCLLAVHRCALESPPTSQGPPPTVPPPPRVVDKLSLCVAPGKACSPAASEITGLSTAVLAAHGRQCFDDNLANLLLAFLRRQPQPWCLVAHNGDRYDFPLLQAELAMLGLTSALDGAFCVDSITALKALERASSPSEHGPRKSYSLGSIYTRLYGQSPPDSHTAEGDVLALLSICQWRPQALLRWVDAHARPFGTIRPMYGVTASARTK
Briefly: Human TREX1 enzymatic assay with dsDNA native oligonucleotide (Picogreen fluorescence). It counts as biochemical. The settings on record: 2 mM dithiothreitol in assay buffer; 50 nM dsDNA oligonucleotide; 30 min preincubation at 25° C.; read-out: TREX1/Human + DTT IC50 AVG. In short, it runs like this: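 TREX1 (0.8–0.16 nM final) preincubated with compound (300 μM–13 nM or 30 μM–1.5 nM, 2% DMSO) 30 min at 25 °C in Tris pH 7.7, 5 mM MgCl2, 2 mM DTT. Annealed dsDNA (50 nM) added for 5–15 min at 25 °C; EDTA quench with Picogreen fluorescence readout.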

Regarding `COc1cc(-c2nc3ccc(S(=O)(=O)N(C)C)cc3n2C2(C)COC2)c(F)c(O)c1O` [Example 228, 2-(2-fluoro-3,4-dihydroxy-5-methoxyphenyl)-N,N-dimethyl-1-(3-methyloxetan-3-yl)-1H-benzo[d]imidazole-6-sulfonamide], the IC50 lay in the range of 10 to 100 µM.

As to `COc1cc(-c2nc3ccccc3n2C2CN(C)C2)c(C)c(O)c1O` [Example 320, 6-methoxy-3-methyl-4-(1-(1-methylazetidin-3-yl)-1H-benzo[d]imidazol-2-yl)benzene-1,2-diol], the IC50 is above 100 µM.

For the compound `COc1cc(-c2nc3ccccc3n2CC2CCC2)c(C)c(O)c1O` [Example 239, 4-(1-(cyclobutylmethyl)-1H-benzo[d]imidazol-2-yl)-6-methoxy-3-methylbenzene-1,2-diol], the IC50 is above 100 µM.

On to `COc1cc(-c2nc3ccncc3n2C)c(-c2cccnc2)c(O)c1O` [Example 93, 6-methoxy-4-(3-methyl-3H-imidazo[4,5-c]pyridin-2-yl)-3-(pyridin-3-yl)benzene-1,2-diol], for which the IC50 is above 100 µM.

Consider `COc1cc(-c2nc3ccccc3[nH]2)c(C)c(O)c1O` [Example 17, 4-(1H-benzo[d]imidazol-2-yl)-6-methoxy-3-methylbenzene-1,2-diol], for which the IC50 was above 100 µM.

For the compound `COc1cc(-c2nc3cc(Cl)c(Cl)cc3[nH]2)c(F)c(O)c1O` [Example 300, 4-(5,6-dichloro-1H-benzo[d]imidazol-2-yl)-3-fluoro-6-methoxybenzene-1,2-diol], the IC50 fell in the range of 10 to 100 µM.

Consider `COc1cc(-c2nc3cccc(NC(C)=O)c3n2C2(C)COC2)c(F)c(O)c1O` [Example 210, N-[2-(2-fluoro-3,4-dihydroxy-5-methoxyphenyl)-1-(3-methyloxetan-3-yl)-1H-1,3-benzodiazol-7-yl]acetamide], for which the IC50 is 0.1 to 1 µM.

With `COc1cc(-c2nc3ccncc3[nH]2)cc(O)c1O` [Example 12, 5-(3H-imidazo[4,5-c]pyridin-2-yl)-3-methoxybenzene-1,2-diol], the IC50 fell in the range of 10 to 100 µM.

With `COc1cc(-c2nc3ccc(-c4ncccn4)cc3n2C2(C)COC2)c(F)c(O)c1O` [Example 267, 3-fluoro-6-methoxy-4-(1-(3-methyloxetan-3-yl)-6-(pyrimidin-2-yl)-1H-benzo[d]imidazol-2-yl)benzene-1,2-diol], the IC50 is at most 0.1 µM.

Regarding `COc1cc(-c2nc3cc(N4CCN(S(=O)(=O)c5ccccc5)CC4)ccc3[nH]2)cc(O)c1O` [Example 87, 3-methoxy-5-(5-(4-(phenylsulfonyl)piperazin-1-yl)-1H-benzo[d]imidazol-2-yl)benzene-1,2-diol], the IC50 is above 100 µM.

Take `COc1cc(-c2nc3ncccc3n2C2(C)COC2)c(F)c(O)c1O` [Example 326, 3-fluoro-6-methoxy-4-(1-(3-methyloxetan-3-yl)-1H-imidazo[4,5-b]pyridin-2-yl)benzene-1,2-diol]: the IC50 was 1 to 10 µM.

On to `COc1cc(-c2nc3cc(N4CCN(C(=O)c5cccc(C(F)(F)F)c5)CC4)ccc3[nH]2)cc(O)c1O` [Example 103, (4-(2-(3,4-dihydroxy-5-methoxyphenyl)-1H-benzo[d]imidazol-5-yl)piperazin-1-yl)(3-(trifluoromethyl)phenyl)methanone], for which the IC50 was above 100 µM.

As to `COc1cc(-c2nc3ccc(C(=O)NCC4(F)CC4)cc3n2C2(C)COC2)c(F)c(O)c1O` [Example 263, 2-(2-fluoro-3,4-dihydroxy-5-methoxyphenyl)-N-[(1-fluorocyclopropyl)methyl]-1-(3-methyloxetan-3-yl)-1H-1,3-benzodiazole-6-carboxamide.], the IC50 is at most 0.1 µM.

For the compound `O=C(O)c1ccc(-c2nc3ccncc3[nH]2)c(F)c1O` [Example 147, 3-fluoro-2-hydroxy-4-(3H-imidazo[4,5-c]pyridin-2-yl)benzoic acid], the IC50 was above 100 µM.

For the compound `COc1cc(-c2nc3cc(N4CCC4)ccc3n2C)c(C(F)(F)F)c(O)c1O` [Example 221, 4-(5-(azetidin-1-yl)-1-methyl-1H-benzo[d]imidazol-2-yl)-6-methoxy-3-(trifluoromethyl)benzene-1,2-diol], the IC50 fell in the range of 1 to 10 µM.

As to `COCCN1CCN(c2ccc3[nH]c(-c4cc(O)c(O)c(OC)c4)nc3c2)CC1` [Example 61, 3-methoxy-5-(5-(4-(2-methoxyethyl)piperazin-1-yl)-1H-benzo[d]imidazol-2-yl)benzene-1,2-diol], the IC50 is above 100 µM.

On to `COc1c(C)c(-c2nc3ccccc3n2C2CCC2)c(F)c(O)c1O` [Example 297, 4-(1-cyclobutyl-1H-benzo[d]imidazol-2-yl)-3-fluoro-6-methoxy-5-methylbenzene-1,2-diol], for which the IC50 was 10 to 100 µM.

As to `O=C(O)c1cc(-c2nc3ccncc3[nH]2)ccc1O` [Example 71, 2-hydroxy-5-(3H-imidazo[4,5-c]pyridin-2-yl)benzoic acid], the IC50 fell in the range of 10 to 100 µM.

As for `COc1cc(-c2nc3ccc(CO)cc3n2C2(C)COC2)c(F)c(O)c1O` [Example 281, 3-fluoro-4-(6-(hydroxymethyl)-1-(3-methyloxetan-3-yl)-1H-benzo[d]imidazol-2-yl)-6-methoxybenzene-1,2-diol], the IC50 lay in the range of 0.1 to 1 µM.

Turning to `COc1cc(-c2nc3cc(S(=O)(=O)Nc4ccccc4)ccc3[nH]2)cc(O)c1O` [Example 19, 2-(3,4-dihydroxy-5-methoxyphenyl)-N-phenyl-1H-benzo[d]imidazole-5-sulfonamide], the IC50 is above 100 µM.

As to `COc1cc(-c2nc3cc(N4CCN(C(=O)c5cccc(C(C)(C)C)c5)CC4)ccc3[nH]2)cc(O)c1O` [Example 134, (3-(tert-butyl)phenyl)(4-(2-(3,4-dihydroxy-5-methoxyphenyl)-1H-benzo[d]imidazol-5-yl)piperazin-1-yl)methanone], the IC50 is above 100 µM.

`CNc1ccc2nc(-c3cc(OC)c(O)c(O)c3F)n(C3(C)COC3)c2c1` [Example 317, 3-fluoro-6-methoxy-4-(6-(methylamino)-1-(3-methyloxetan-3-yl)-1H-benzo[d]imidazol-2-yl)benzene-1,2-diol]: the IC50 was 0.1 to 1 µM.

For the compound `COc1cc(-c2nc3ccccc3n2C2(C)COC2)c(C)c(O)c1O` [Example 169, 6-methoxy-3-methyl-4-(1-(3-methyloxetan-3-yl)-1H-benzo[d]imidazol-2-yl)benzene-1,2-diol], the IC50 lay within 0.1 to 1 µM.

Take `COc1cc(-c2nc3ccccc3n2C(C)C)c(C)c(O)c1O` [Example 226, 4-(1-isopropyl-1H-benzo[d]imidazol-2-yl)-6-methoxy-3-methylbenzene-1,2-diol]: the IC50 is 1 to 10 µM.

For the compound `COc1cc(-c2nc3cc(N4CCN(C(=O)c5ccc(C)cc5C)CC4)ccc3[nH]2)cc(O)c1O` [Example 100, (4-(2-(3,4-dihydroxy-5-methoxyphenyl)-1H-benzo[d]imidazol-5-yl)piperazin-1-yl)(2,4-dimethylphenyl)methanone], the IC50 is above 100 µM.

For the compound `COc1cc(-c2nc3cc(N4CCN(S(=O)(=O)C(C)C)CC4)ccc3[nH]2)cc(O)c1O` [Example 116, 5-(5-(4-(isopropylsulfonyl)piperazin-1-yl)-1H-benzo[d]imidazol-2-yl)-3-methoxybenzene-1,2-diol], the IC50 was 1 to 10 µM.

For `COc1cc(-c2nc3c(N4CCOCC4)nccc3[nH]2)cc(O)c1O` [Example 110, 3-methoxy-5-(4-morpholino-1H-imidazo[4,5-c]pyridin-2-yl)benzene-1,2-diol], the IC50 was above 100 µM.

As to `COc1cc(-c2nc3cc(S(=O)(=O)Nc4ccccc4)ccc3n2C2COC2)cc(O)c1O` [Example 46, 2-(3,4-dihydroxy-5-methoxyphenyl)-1-(oxetan-3-yl)-N-phenyl-1H-benzo[d]imidazole-5-sulfonamide], the IC50 was in the range of 10 to 100 µM.

For the compound `COc1cc(-c2nc3cc(N4CC(S(C)(=O)=O)C4)ccc3[nH]2)cc(O)c1O` [Example 139, 3-methoxy-5-(5-(3-(methylsulfonyl)azetidin-1-yl)-1H-benzo[d]imidazol-2-yl)benzene-1,2-diol], the IC50 lay in the range of 1 to 10 µM.

With `COc1cc(-c2nc3ccc(N4CCOC4=O)cc3n2C2(C)COC2)c(F)c(O)c1O` [Example 276, 3-(2-(2-fluoro-3,4-dihydroxy-5-methoxyphenyl)-1-(3-methyloxetan-3-yl)-1H-benzo[d]imidazol-6-yl)oxazolidin-2-one], the IC50 is at most 0.1 µM.

As for `COc1cc(-c2nc3ccc(N4CCN(C)CC4)cc3n2C2COC2)cc(O)c1O` [Example 51, 3-methoxy-5-(6-(4-methylpiperazin-1-yl)-1-(oxetan-3-yl)-1H-benzo[d]imidazol-2-yl)benzene-1,2-diol], the IC50 was above 100 µM.

Take `COc1cc(-c2nc3c(NC(C)=O)cccc3n2C2(C)COC2)c(F)c(O)c1O` [Example 209, N-[2-(2-fluoro-3,4-dihydroxy-5-methoxyphenyl)-1-(3-methyloxetan-3-yl)-1H-1,3-benzodiazol-4-yl]acetamide]: the IC50 is 0.1 to 1 µM.

On to `COc1cc(-c2nc3ccc(C(=O)Nc4ccccc4)cc3n2C2(C)COC2)c(F)c(O)c1O` [Example 246, 2-(2-fluoro-3,4-dihydroxy-5-methoxyphenyl)-1-(3-methyloxetan-3-yl)-N-phenyl-1H-benzo[d]imidazole-6-carboxamide], for which the IC50 is at most 0.1 µM.

For `COc1cc(-c2nc3ccc(C(=O)NCC(F)(F)F)cc3n2C2(C)COC2)c(F)c(O)c1O` [Example 244, 2-(2-fluoro-3,4-dihydroxy-5-methoxyphenyl)-1-(3-methyloxetan-3-yl)-N-(2,2,2-trifluoroethyl)-1H-1,3-benzodiazole-6-carboxamide], the IC50 was at most 0.1 µM.
